# Test results reported in the supplement of paper PMC4862054.
# System: BT-474
# Experiment: normalised response (% of control), CellTox Green; higher = less cell death (100 = DMSO, 0 = benzethonium chloride kill control)
# Conditions: incubation time: 72 h
# Summary of the method: (§1)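 The table gives the normalised signal for a single concentration in each entry. Breast cancer cell lines were seeded (20 µl suspension) into 384-well plates holding compound at 5 concentrations in 10-fold steps over a compound-specific 10,000-fold range and incubated 72 h, then read for CellTox Green fluorescence (485/520 nm) and CellTiter-Glo luminescence. Normalisation on each plate used 0.1 % DMSO (100) and a positive kill control (0).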
row,SMILES,normalised response [%]
1,COc1cc([C@@H]2c3cc4c(cc3[C@@H](O[C@@H]3O[C@@H]5CO[C@@H](c6cccs6)O[C@H]5[C@H](O)[C@H]3O)[C@H]3COC(=O)[C@H]23)OCO4)cc(OC)c1O [Teniposide] (1000 nM),99.1
2,CC(=O)Nc1cccc(-n2c(=O)n(C3CC3)c(=O)c3c(Nc4ccc(I)cc4F)n(C)c(=O)c(C)c32)c1 [Trametinib] (25 nM),102
3,N#Cc1ccc(C(c2ccc(C#N)cc2)n2cncn2)cc1 [Letrozole] (1000 nM),100
4,CCCS(=O)(=O)Nc1ccc(F)c(C(=O)c2c[nH]c3ncc(-c4ccc(Cl)cc4)cc23)c1F [Vemurafenib] (1000 nM),98
5,O=C(/C=C/c1cccnc1)NCCCCC1CCN(C(=O)c2ccccc2)CC1 [Daporinad] (100 nM),98.6
6,CCCCC(=O)OCC(=O)[C@]1(O)Cc2c(O)c3c(c(O)c2[C@@H](O[C@H]2C[C@H](NC(=O)C(F)(F)F)[C@H](O)[C@H](C)O2)C1)C(=O)c1c(OC)cccc1C3=O [Valrubicin] (500 nM),106
7,CC1=C(/C=C/C(C)=C/C=C/C(C)=C/C(=O)O)C(C)(C)CCC1 [Tretinoin] (1000 nM),99.4

# System: BT-549
# Experiment: as above
# Conditions: incubation time: 72 h
# Summary of the method: as §1
row,SMILES,normalised response [%]
1,COc1cc([C@@H]2c3cc4c(cc3[C@@H](O[C@@H]3O[C@@H]5CO[C@@H](c6cccs6)O[C@H]5[C@H](O)[C@H]3O)[C@H]3COC(=O)[C@H]23)OCO4)cc(OC)c1O [Teniposide] (1000 nM),78.4
2,CC(=O)Nc1cccc(-n2c(=O)n(C3CC3)c(=O)c3c(Nc4ccc(I)cc4F)n(C)c(=O)c(C)c32)c1 [Trametinib] (25 nM),93.6
3,N#Cc1ccc(C(c2ccc(C#N)cc2)n2cncn2)cc1 [Letrozole] (1000 nM),89.6
4,CCCS(=O)(=O)Nc1ccc(F)c(C(=O)c2c[nH]c3ncc(-c4ccc(Cl)cc4)cc23)c1F [Vemurafenib] (1000 nM),116
5,O=C(/C=C/c1cccnc1)NCCCCC1CCN(C(=O)c2ccccc2)CC1 [Daporinad] (100 nM),105
6,CCCCC(=O)OCC(=O)[C@]1(O)Cc2c(O)c3c(c(O)c2[C@@H](O[C@H]2C[C@H](NC(=O)C(F)(F)F)[C@H](O)[C@H](C)O2)C1)C(=O)c1c(OC)cccc1C3=O [Valrubicin] (500 nM),78.4
7,CC1=C(/C=C/C(C)=C/C=C/C(C)=C/C(=O)O)C(C)(C)CCC1 [Tretinoin] (1000 nM),101

# System: CAL-120
# Experiment: as above
# Conditions: incubation time: 72 h
# Summary of the method: as §1
row,SMILES,normalised response [%]
1,COc1cc([C@@H]2c3cc4c(cc3[C@@H](O[C@@H]3O[C@@H]5CO[C@@H](c6cccs6)O[C@H]5[C@H](O)[C@H]3O)[C@H]3COC(=O)[C@H]23)OCO4)cc(OC)c1O [Teniposide] (1000 nM),88.1
2,CC(=O)Nc1cccc(-n2c(=O)n(C3CC3)c(=O)c3c(Nc4ccc(I)cc4F)n(C)c(=O)c(C)c32)c1 [Trametinib] (25 nM),87.6
3,N#Cc1ccc(C(c2ccc(C#N)cc2)n2cncn2)cc1 [Letrozole] (1000 nM),103
4,CCCS(=O)(=O)Nc1ccc(F)c(C(=O)c2c[nH]c3ncc(-c4ccc(Cl)cc4)cc23)c1F [Vemurafenib] (1000 nM),99.7
5,O=C(/C=C/c1cccnc1)NCCCCC1CCN(C(=O)c2ccccc2)CC1 [Daporinad] (100 nM),91.2
6,CCCCC(=O)OCC(=O)[C@]1(O)Cc2c(O)c3c(c(O)c2[C@@H](O[C@H]2C[C@H](NC(=O)C(F)(F)F)[C@H](O)[C@H](C)O2)C1)C(=O)c1c(OC)cccc1C3=O [Valrubicin] (500 nM),118
7,CC1=C(/C=C/C(C)=C/C=C/C(C)=C/C(=O)O)C(C)(C)CCC1 [Tretinoin] (1000 nM),107

# System: CAL-148
# Experiment: as above
# Conditions: incubation time: 72 h
# Summary of the method: as §1
row,SMILES,normalised response [%]
1,COc1cc([C@@H]2c3cc4c(cc3[C@@H](O[C@@H]3O[C@@H]5CO[C@@H](c6cccs6)O[C@H]5[C@H](O)[C@H]3O)[C@H]3COC(=O)[C@H]23)OCO4)cc(OC)c1O [Teniposide] (1000 nM),21.2
2,CC(=O)Nc1cccc(-n2c(=O)n(C3CC3)c(=O)c3c(Nc4ccc(I)cc4F)n(C)c(=O)c(C)c32)c1 [Trametinib] (25 nM),108
3,N#Cc1ccc(C(c2ccc(C#N)cc2)n2cncn2)cc1 [Letrozole] (1000 nM),101
4,CCCS(=O)(=O)Nc1ccc(F)c(C(=O)c2c[nH]c3ncc(-c4ccc(Cl)cc4)cc23)c1F [Vemurafenib] (1000 nM),101
5,O=C(/C=C/c1cccnc1)NCCCCC1CCN(C(=O)c2ccccc2)CC1 [Daporinad] (100 nM),95
6,CCCCC(=O)OCC(=O)[C@]1(O)Cc2c(O)c3c(c(O)c2[C@@H](O[C@H]2C[C@H](NC(=O)C(F)(F)F)[C@H](O)[C@H](C)O2)C1)C(=O)c1c(OC)cccc1C3=O [Valrubicin] (500 nM),56.9
7,CC1=C(/C=C/C(C)=C/C=C/C(C)=C/C(=O)O)C(C)(C)CCC1 [Tretinoin] (1000 nM),98.5

# System: CAL-51
# Experiment: as above
# Conditions: incubation time: 72 h
# Summary of the method: as §1
row,SMILES,normalised response [%]
1,COc1cc([C@@H]2c3cc4c(cc3[C@@H](O[C@@H]3O[C@@H]5CO[C@@H](c6cccs6)O[C@H]5[C@H](O)[C@H]3O)[C@H]3COC(=O)[C@H]23)OCO4)cc(OC)c1O [Teniposide] (1000 nM),51.4
2,CC(=O)Nc1cccc(-n2c(=O)n(C3CC3)c(=O)c3c(Nc4ccc(I)cc4F)n(C)c(=O)c(C)c32)c1 [Trametinib] (25 nM),113
3,N#Cc1ccc(C(c2ccc(C#N)cc2)n2cncn2)cc1 [Letrozole] (1000 nM),98.2
4,CCCS(=O)(=O)Nc1ccc(F)c(C(=O)c2c[nH]c3ncc(-c4ccc(Cl)cc4)cc23)c1F [Vemurafenib] (1000 nM),82.6
5,O=C(/C=C/c1cccnc1)NCCCCC1CCN(C(=O)c2ccccc2)CC1 [Daporinad] (100 nM),105
6,CCCCC(=O)OCC(=O)[C@]1(O)Cc2c(O)c3c(c(O)c2[C@@H](O[C@H]2C[C@H](NC(=O)C(F)(F)F)[C@H](O)[C@H](C)O2)C1)C(=O)c1c(OC)cccc1C3=O [Valrubicin] (500 nM),67.6
7,CC1=C(/C=C/C(C)=C/C=C/C(C)=C/C(=O)O)C(C)(C)CCC1 [Tretinoin] (1000 nM),99

# System: CAL-85-1
# Experiment: as above
# Conditions: incubation time: 72 h
# Summary of the method: as §1
row,SMILES,normalised response [%]
1,COc1cc([C@@H]2c3cc4c(cc3[C@@H](O[C@@H]3O[C@@H]5CO[C@@H](c6cccs6)O[C@H]5[C@H](O)[C@H]3O)[C@H]3COC(=O)[C@H]23)OCO4)cc(OC)c1O [Teniposide] (1000 nM),91
2,CC(=O)Nc1cccc(-n2c(=O)n(C3CC3)c(=O)c3c(Nc4ccc(I)cc4F)n(C)c(=O)c(C)c32)c1 [Trametinib] (25 nM),66.6
3,N#Cc1ccc(C(c2ccc(C#N)cc2)n2cncn2)cc1 [Letrozole] (1000 nM),105
4,CCCS(=O)(=O)Nc1ccc(F)c(C(=O)c2c[nH]c3ncc(-c4ccc(Cl)cc4)cc23)c1F [Vemurafenib] (1000 nM),100
5,O=C(/C=C/c1cccnc1)NCCCCC1CCN(C(=O)c2ccccc2)CC1 [Daporinad] (100 nM),101
6,CCCCC(=O)OCC(=O)[C@]1(O)Cc2c(O)c3c(c(O)c2[C@@H](O[C@H]2C[C@H](NC(=O)C(F)(F)F)[C@H](O)[C@H](C)O2)C1)C(=O)c1c(OC)cccc1C3=O [Valrubicin] (500 nM),144
7,CC1=C(/C=C/C(C)=C/C=C/C(C)=C/C(=O)O)C(C)(C)CCC1 [Tretinoin] (1000 nM),99.5

# System: DU-4475
# Experiment: as above
# Conditions: incubation time: 72 h
# Summary of the method: as §1
row,SMILES,normalised response [%]
1,COc1cc([C@@H]2c3cc4c(cc3[C@@H](O[C@@H]3O[C@@H]5CO[C@@H](c6cccs6)O[C@H]5[C@H](O)[C@H]3O)[C@H]3COC(=O)[C@H]23)OCO4)cc(OC)c1O [Teniposide] (1000 nM),75
2,CC(=O)Nc1cccc(-n2c(=O)n(C3CC3)c(=O)c3c(Nc4ccc(I)cc4F)n(C)c(=O)c(C)c32)c1 [Trametinib] (25 nM),64.6
3,N#Cc1ccc(C(c2ccc(C#N)cc2)n2cncn2)cc1 [Letrozole] (1000 nM),100
4,CCCS(=O)(=O)Nc1ccc(F)c(C(=O)c2c[nH]c3ncc(-c4ccc(Cl)cc4)cc23)c1F [Vemurafenib] (1000 nM),78.9
5,O=C(/C=C/c1cccnc1)NCCCCC1CCN(C(=O)c2ccccc2)CC1 [Daporinad] (100 nM),98.8
6,CCCCC(=O)OCC(=O)[C@]1(O)Cc2c(O)c3c(c(O)c2[C@@H](O[C@H]2C[C@H](NC(=O)C(F)(F)F)[C@H](O)[C@H](C)O2)C1)C(=O)c1c(OC)cccc1C3=O [Valrubicin] (500 nM),117
7,CC1=C(/C=C/C(C)=C/C=C/C(C)=C/C(=O)O)C(C)(C)CCC1 [Tretinoin] (1000 nM),105

# System: HCC1143
# Experiment: as above
# Conditions: incubation time: 72 h
# Summary of the method: as §1
row,SMILES,normalised response [%]
1,COc1cc([C@@H]2c3cc4c(cc3[C@@H](O[C@@H]3O[C@@H]5CO[C@@H](c6cccs6)O[C@H]5[C@H](O)[C@H]3O)[C@H]3COC(=O)[C@H]23)OCO4)cc(OC)c1O [Teniposide] (1000 nM),-28.9
2,CC(=O)Nc1cccc(-n2c(=O)n(C3CC3)c(=O)c3c(Nc4ccc(I)cc4F)n(C)c(=O)c(C)c32)c1 [Trametinib] (25 nM),116
3,N#Cc1ccc(C(c2ccc(C#N)cc2)n2cncn2)cc1 [Letrozole] (1000 nM),101
4,CCCS(=O)(=O)Nc1ccc(F)c(C(=O)c2c[nH]c3ncc(-c4ccc(Cl)cc4)cc23)c1F [Vemurafenib] (1000 nM),91.8
5,O=C(/C=C/c1cccnc1)NCCCCC1CCN(C(=O)c2ccccc2)CC1 [Daporinad] (100 nM),104
6,CCCCC(=O)OCC(=O)[C@]1(O)Cc2c(O)c3c(c(O)c2[C@@H](O[C@H]2C[C@H](NC(=O)C(F)(F)F)[C@H](O)[C@H](C)O2)C1)C(=O)c1c(OC)cccc1C3=O [Valrubicin] (500 nM),150
7,CC1=C(/C=C/C(C)=C/C=C/C(C)=C/C(=O)O)C(C)(C)CCC1 [Tretinoin] (1000 nM),115

# System: HCC1599
# Experiment: as above
# Conditions: incubation time: 72 h
# Summary of the method: as §1
row,SMILES,normalised response [%]
1,COc1cc([C@@H]2c3cc4c(cc3[C@@H](O[C@@H]3O[C@@H]5CO[C@@H](c6cccs6)O[C@H]5[C@H](O)[C@H]3O)[C@H]3COC(=O)[C@H]23)OCO4)cc(OC)c1O [Teniposide] (1000 nM),75.5
2,CC(=O)Nc1cccc(-n2c(=O)n(C3CC3)c(=O)c3c(Nc4ccc(I)cc4F)n(C)c(=O)c(C)c32)c1 [Trametinib] (25 nM),105
3,N#Cc1ccc(C(c2ccc(C#N)cc2)n2cncn2)cc1 [Letrozole] (1000 nM),85.3
4,CCCS(=O)(=O)Nc1ccc(F)c(C(=O)c2c[nH]c3ncc(-c4ccc(Cl)cc4)cc23)c1F [Vemurafenib] (1000 nM),90.8
5,O=C(/C=C/c1cccnc1)NCCCCC1CCN(C(=O)c2ccccc2)CC1 [Daporinad] (100 nM),78.1
6,CCCCC(=O)OCC(=O)[C@]1(O)Cc2c(O)c3c(c(O)c2[C@@H](O[C@H]2C[C@H](NC(=O)C(F)(F)F)[C@H](O)[C@H](C)O2)C1)C(=O)c1c(OC)cccc1C3=O [Valrubicin] (500 nM),134
7,CC1=C(/C=C/C(C)=C/C=C/C(C)=C/C(=O)O)C(C)(C)CCC1 [Tretinoin] (1000 nM),101

# System: HCC1937
# Experiment: as above
# Conditions: incubation time: 72 h
# Summary of the method: as §1
row,SMILES,normalised response [%]
1,COc1cc([C@@H]2c3cc4c(cc3[C@@H](O[C@@H]3O[C@@H]5CO[C@@H](c6cccs6)O[C@H]5[C@H](O)[C@H]3O)[C@H]3COC(=O)[C@H]23)OCO4)cc(OC)c1O [Teniposide] (1000 nM),92.2
